The values below come from patent publication US20080022467A1, “Disazo dyes and their preparation and use” (ILFORD Imaging Switzerland GmbH, priority 2006, published 2008).

Holding throughout (type): physicochemical
Series [1] in a line: Light stability of printed patches (Weather-Ometer, xenon lamp). On the set-up: key to Light Stability (Class) on Recording Sheet A / Light Stability (Class) on Recording Sheet B / Light Stability (Class) on Recording Sheet C / Light Stability (Class) on Recording Sheet D / Light Stability (Class) on Recording Sheet E / Light Stability (Class) on Recording Sheet F / Light Stability (Class) on Recording Sheet G: A: excellent; B: good; C: satisfactory; D: unsatisfactory. The settings on record: for Light Stability (Class) on Recording Sheet A: A: HP Printing Paper HPP 1122 (paper), 20° C., 50% relative humidity; for Light Stability (Class) on Recording Sheet A / Light Stability (Class) on Recording Sheet B / Light Stability (Class) on Recording Sheet C / Light Stability (Class) on Recording Sheet D / Light Stability (Class) on Recording Sheet E / Light Stability (Class) on Recording Sheet F / Light Stability (Class) on Recording Sheet G: 20 megalux hours; for Light Stability (Class) on Recording Sheet B: B: HP Premium Plus (polymer based); for Light Stability (Class) on Recording Sheet C: C: ILFORD Galerie Smooth Glossy (nanoporous); for Light Stability (Class) on Recording Sheet D: D: ILFORD Printasia Premium Photo Glossy Paper (nanoporous); for Light Stability (Class) on Recording Sheet E: E: ILFORD Galerie Classic Gloss Paper (polymer based); for Light Stability (Class) on Recording Sheet F: F: EPSON Premium Glossy Photo Paper (nanoporous); for Light Stability (Class) on Recording Sheet G: G: CANON Photo Paper Pro PR-101 (nanoporous); for light stability on all recording sheets (in words): summary of Table 4. How it is done:
(§1) The present invention, as far as it relates to recording liquids, is illustrated by the following examples using the disazo dyes of Table 1 according to the invention and dyes representing the state of the art. For each dye, 100 g of recording liquid were prepared by heating the necessary amount of dye (2.0 g-5.0 g), 6.0 g of ethylene glycol, 3.0 g of propylene-1,2-glycol, 3.0 g of 1-methyl-2-pyrrolidone, 0.3 g of an aqueous solution (50%) of Olin® 10G (available from Arch Chemicals Inc., Norwalk, USA), 0.3 g of Surfinol® 465 (available from Air Products and Chemicals Inc., Allentown, USA) and 0.1 g of Mergal® K 10N (available from Riedel-de-Haën, Seelze, Germany) together with water at a temperature of 50° C. under stirring for approximately 1 hour. The resulting solution was cooled down to a temperature of 20° C., its value of pH was adjusted to 7.5 and the solution was passed through a Millipore® filter of 0.3 μm pore diameter. The dye quantity was adjusted in such a way that the optical density of the printed image was similar for all dyes.
(§2) Homogeneously colored square patches with an approximate density of 1.40 were then printed, using these recording liquids, with an ink jet printer Canon BJC 8500 onto the following recording sheets: • A: HP Printing Paper HPP 1122 (paper) • B: HP Premium Plus (polymer based recording sheet) • C: ILFORD Galerie Smooth Glossy (nanoporous recording sheet) • D: ILFORD Printasia Premium Photo Glossy Paper (nanoporous recording sheet) • E: ILFORD Galerie Classic Gloss Paper (polymer based recording sheet) • F: EPSON Premium Glossy Photo Paper (nanoporous recording sheet) • G: CANON Photo Paper Pro PR-101 (nanoporous recording sheet)
The printed samples were irradiated using a Weather-Ometer® Ci35A (available from Atlas Material Testing Technology, Chicago, USA) with a 6500 W xenon lamp at a temperature of 20° C. and relative humidity of 50% until an illumination of 20 megalux hours was reached. The density loss was measured with a densitometer Spectrolino®. The percent density loss of initial density gives an indication of the light stability of the dyes on the printed recording sheet.

Series [2] can be described thus: Dye solubility (saturated aqueous solution, spectrophotometric). The settings on record: summary of Table 2. How it is done: Dye solubility was determined with a spectrophotometer in the UV and in the visible spectral region. The spectra of the pure disazo dyes according to the invention were measured in a buffered aqueous solution at a value of pH of 7.0. Saturated aqueous solutions of the dyes were prepared at a temperature of 50° C. These solutions were afterwards cooled down to room temperature and diluted for the measurements after a waiting time of 24 hours in such a way that the absorption at the absorption maximum was between 0.8 and 1.5. This dilution factor allows the calculation of dye solubility.

A short description of series [3]: Stability against degradation by ozone of printed patches. Details: key: A: excellent; B: good; C: satisfactory; D: unsatisfactory. The conditions noted are these: ozone 1 ppm, 30° C., 50% relative humidity; for Resistance against Degradation by Ozone (Class) on Recording Sheet C: C: ILFORD Galerie Smooth Glossy (nanoporous); for Resistance against Degradation by Ozone (Class) on Recording Sheet D: D: ILFORD Printasia Premium Photo Glossy Paper (nanoporous); for Resistance against Degradation by Ozone (Class) on Recording Sheet F: F: EPSON Premium Glossy Photo Paper (nanoporous); for Resistance against Degradation by Ozone (Class) on Recording Sheet G: G: CANON Photo Paper Pro PR-101 (nanoporous). How it is done: as §1, §2
The optical density of the colored square patches was measured with a Spectrolino® densitometer. Afterwards, the printed samples were stored for a predetermined time (for example 48 hours) in an ozone chamber, model 903 (available from Satra/Hampden, Great Britain) at a temperature of 30° C., a relative humidity of the air of 50% and an ozone concentration of 1 ppm at a velocity of the circulating, ozone containing air of 13 mm/s. After storage, the samples were re-measured. The density differences of these two measurements, expressed as per cent of the initial density, are an indication of the amount of dye loss due to the exposure to ozone.

Turning to `O=S(=O)([O-])c1cc(/N=N/c2ccc(Nc3nc(NCCCN4CCOCC4)nc(Nc4ccc(/N=N/c5cc(S(=O)(=O)[O-])c6cccc(S(=O)(=O)[O-])c6c5)cc4)n3)cc2)cc2c(S(=O)(=O)[O-])cccc12.[Na+].[Na+].[Na+].[Na+]` [Dye No. IV, reference compound], in series [1], the “Light Stability (Class) on Recording Sheet A” value is reported as “C”, the “Light Stability (Class) on Recording Sheet B” value was “A”, the “Light Stability (Class) on Recording Sheet C” value was “D” and the “Light Stability (Class) on Recording Sheet D” value is given as “C”. For the same compound, in series [1], the “Light Stability (Class) on Recording Sheet E” value is listed as “C”, the “Light Stability (Class) on Recording Sheet F” value is listed as “B”, the “Light Stability (Class) on Recording Sheet G” value is “B” and the “light stability on all recording sheets (in words)” value is “satisfactory or even unsatisfactory light stability”. In addition, the “solubility (in words)” value in series [2] was “equally high water solubility”. Moreover, in series [3], the “Resistance against Degradation by Ozone (Class) on Recording Sheet C” value (“Resistance … on Recording Sheet C” for short) was “A”, the “Resistance against Degradation by Ozone (Class) on Recording Sheet D” value (“Resistance … on Recording Sheet D” below) is listed as “B”, the “Resistance against Degradation by Ozone (Class) on Recording Sheet F” value (shortened to “Resistance … on Recording Sheet F”) was “A” and the “Resistance against Degradation by Ozone (Class) on Recording Sheet G” value (“Resistance … on Recording Sheet G” for short) is given as “A”.

Regarding `Cc1cc(Nc2nc(NCCO)nc(Nc3ccc(/N=N/c4cc(S(=O)(=O)[O-])c5cccc(S(=O)(=O)[O-])c5c4)c(C)c3)n2)ccc1/N=N/c1cc(S(=O)(=O)[O-])c2cccc(S(=O)(=O)[O-])c2c1.[Na+].[Na+].[Na+].[Na+]` [Dye No. II, Direct Yellow 86, reference compound], in series [1], the “Light Stability (Class) on Recording Sheet A” value is listed as “B”, the “Light Stability (Class) on Recording Sheet B” value was “D”, the “Light Stability (Class) on Recording Sheet C” value is listed as “B” and the “Light Stability (Class) on Recording Sheet D” value is reported as “B”. In series [1], the “Light Stability (Class) on Recording Sheet E” value is on record as “B”, the “Light Stability (Class) on Recording Sheet F” value is on record as “A”, the “Light Stability (Class) on Recording Sheet G” value was “A” and the “light stability on all recording sheets (in words)” value was “satisfactory or even unsatisfactory light stability”. Moreover, in series [3], the “Resistance … on Recording Sheet C” value was “A”, the “Resistance … on Recording Sheet D” value is recorded as “B”, the “Resistance … on Recording Sheet F” value is “A” and the “Resistance … on Recording Sheet G” value is given as “A”.

With `CN(CCS(=O)(=O)[O-])c1nc(Nc2ccc(N=Nc3ccc4cc(S(=O)(=O)[O-])cc(S(=O)(=O)[O-])c4c3)cc2)nc(Nc2ccc(N=Nc3ccc4cc(S(=O)(=O)[O-])cc(S(=O)(=O)[O-])c4c3)cc2)n1.[Na+].[Na+].[Na+].[Na+].[Na+]` [Dye No. 17], in series [1], the “Light Stability (Class) on Recording Sheet A” value is listed as “B”, the “Light Stability (Class) on Recording Sheet B” value was “A”, the “Light Stability (Class) on Recording Sheet C” value was “A” and the “Light Stability (Class) on Recording Sheet D” value is given as “B”. In series [1], the “Light Stability (Class) on Recording Sheet E” value is on record as “B”, the “Light Stability (Class) on Recording Sheet F” value was “B” and the “Light Stability (Class) on Recording Sheet G” value is recorded as “B”. Further, in series [3], the “Resistance … on Recording Sheet C” value is “B”, the “Resistance … on Recording Sheet D” value was “A”, the “Resistance … on Recording Sheet F” value is recorded as “A” and the “Resistance … on Recording Sheet G” value is “A”.

As for `O=S(=O)([O-])CCCSc1nc(Nc2ccc(N=Nc3cc(S(=O)(=O)[O-])c4cccc(S(=O)(=O)[O-])c4c3)cc2)nc(Nc2ccc(N=Nc3cc(S(=O)(=O)[O-])c4cccc(S(=O)(=O)[O-])c4c3)cc2)n1.[Na+].[Na+].[Na+].[Na+].[Na+]` [Dye No. 10], in series [1], the “Light Stability (Class) on Recording Sheet A” value was “B”, the “Light Stability (Class) on Recording Sheet B” value is given as “A”, the “Light Stability (Class) on Recording Sheet C” value is recorded as “A” and the “Light Stability (Class) on Recording Sheet D” value is on record as “B”. Moreover, in series [1], the “Light Stability (Class) on Recording Sheet E” value is on record as “B”, the “Light Stability (Class) on Recording Sheet F” value is reported as “B” and the “Light Stability (Class) on Recording Sheet G” value is reported as “B”. Besides, in series [3], the “Resistance … on Recording Sheet C” value is reported as “A”, the “Resistance … on Recording Sheet D” value is reported as “A”, the “Resistance … on Recording Sheet F” value is “A” and the “Resistance … on Recording Sheet G” value is on record as “A”.
